Data from patent US20240335431A1, “1-H-PYRROLO[2,3-c]PYRIDINE COMPOUNDS” (Acerta Pharma B.V., priority 2023, published 2024).
Like-named read-outs stand apart in the source and are kept apart here.

What was measured:
HEL cells = assay: Proliferation assay, HEL control cell line (CellTiter-Glo, 7 days); assay type: cell-based, human
Summary of the method: (§1)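 Cells seeded at 125 (MOLM-13), 300 (MV4;11), 75 (OCI-AML3) or 200 (HEL) per well were exposed to 3.16-fold compound dilutions (0.1% DMSO) for 7 days at 37° C. Viability by CellTiter-Glo luminescence, normalized to DMSO (100%) and day-0 plate (0%); IC50 from one-site dose-response fit.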

MV4;11 cells = assay: Proliferation assay, MV4;11 (CellTiter-Glo, 7 days); assay type: cell-based, human; conditions: read-out: MV-4-11 IC50
Summary of the method: as §1

hERG = hERG (Homo sapiens (Human), UniProt Q12809); assay: hERG assay 1 (standard), SyncroPatch 384PE; assay type: cell-based; conditions: CHO cells, room temperature, up to 40 uM
Chain of hERG (Q12809 whole entry): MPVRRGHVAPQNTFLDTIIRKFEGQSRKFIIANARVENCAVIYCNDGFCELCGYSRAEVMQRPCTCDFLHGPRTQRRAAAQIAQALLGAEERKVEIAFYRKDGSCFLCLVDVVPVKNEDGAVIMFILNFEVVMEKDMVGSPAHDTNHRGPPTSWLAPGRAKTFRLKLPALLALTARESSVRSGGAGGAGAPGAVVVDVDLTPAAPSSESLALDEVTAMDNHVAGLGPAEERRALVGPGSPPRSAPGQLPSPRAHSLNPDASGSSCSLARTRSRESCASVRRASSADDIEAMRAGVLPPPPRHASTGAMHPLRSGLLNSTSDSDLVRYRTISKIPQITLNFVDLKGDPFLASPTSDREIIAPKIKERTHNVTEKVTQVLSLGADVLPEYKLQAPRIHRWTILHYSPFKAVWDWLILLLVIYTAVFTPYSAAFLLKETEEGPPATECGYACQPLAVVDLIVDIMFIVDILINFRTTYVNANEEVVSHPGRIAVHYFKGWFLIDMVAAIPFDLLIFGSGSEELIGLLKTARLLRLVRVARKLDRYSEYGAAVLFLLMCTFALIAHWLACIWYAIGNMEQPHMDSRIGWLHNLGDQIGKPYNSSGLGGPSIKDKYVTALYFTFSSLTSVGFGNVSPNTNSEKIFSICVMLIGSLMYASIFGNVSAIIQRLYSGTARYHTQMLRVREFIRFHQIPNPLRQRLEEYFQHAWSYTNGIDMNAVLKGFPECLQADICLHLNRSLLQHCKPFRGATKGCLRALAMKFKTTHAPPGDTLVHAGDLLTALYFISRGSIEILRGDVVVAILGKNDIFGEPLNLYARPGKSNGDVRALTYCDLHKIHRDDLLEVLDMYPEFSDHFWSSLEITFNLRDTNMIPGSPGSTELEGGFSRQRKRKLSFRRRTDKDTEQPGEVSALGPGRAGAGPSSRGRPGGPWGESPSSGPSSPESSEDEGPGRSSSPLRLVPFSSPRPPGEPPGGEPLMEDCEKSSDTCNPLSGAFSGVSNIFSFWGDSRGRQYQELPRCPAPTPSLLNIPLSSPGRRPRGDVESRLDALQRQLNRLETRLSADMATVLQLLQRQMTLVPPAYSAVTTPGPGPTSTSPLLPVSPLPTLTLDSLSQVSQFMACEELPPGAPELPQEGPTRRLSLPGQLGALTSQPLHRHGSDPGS
Summary of the method: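 Automated patch clamp on hERG-expressing CHO-K1 cells at room temperature, +60/−40 mV protocol every 15 s. Six-point cumulative concentrations 139 nM to 40 uM (0.33% DMSO final); IC50 from one-site fit of % inhibition. Wells required ≥30 MegaOhm seal, current >0.2 nA, Z prime >0.4.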

[1] = Human hepatocyte intrinsic clearance assay; assay type: in vitro ADME; conditions: human hepatocytes
Summary of the method: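 Pooled 10-donor cryopreserved human hepatocytes in suspension (0.25×10^6 cells in 0.25 mL) incubated with test compound at […], 37° C. Samples taken 0.5–120 min and quenched in acetonitrile, parent remaining measured by LC-MS/MS. CLint ([…]) derived from slope of ln % remaining vs time.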

Row | IC50 (MV4;11 cells; Homo sapiens, MV4-11, 168 h) | HH CLint [1] | Compound | IC50 (HEL cells; Homo sapiens, HEL, 168 h) | IC50 (hERG) | IC50 (HEL cells) | IC50 (MV4;11 cells)
1 |  | <1.0 μl/min/1E6 | CCN(C(=O)c1cc(F)ccc1-n1c(C)c(C(=O)C2CCN(C(=O)[C@H]3NC[C@@H]4C[C@@H]43)CC2)c2ccncc21)C(C)C (single isomer, unassigned) [Example 48-2] |  | > 40 µM | > 10 µM | 0.029 µM
2 | 0.053 µM | 2.9 μl/min/1E6 | CC(C)N(C(=O)c1cc(F)ccc1-n1cc(C(=O)C2CN(C(=O)[C@H]3N[C@@H]4CC[C@H]3C4)C2)c2ccnc(F)c21)C(C)C [Example 15, 2-(3-(1-((1R,3S,4S)-2-Azabicyclo[2.2.1]heptane-3-carbonyl)azetidine-3-carbonyl)-7-fluoro-1H-pyrrolo[2,3-c]pyridin-1-yl)-5-fluoro-N,N-diisopropylbenzamide] | > 10 µM | 24.9 µM |  | 
3 | 0.072 µM | 3.2 μl/min/1E6 | CC(C)N(C(=O)c1cc(F)ccc1-n1cc(C(=O)C2CN(C(=O)[C@H]3N[C@H]4C[C@@H]3[C@@H](F)C4)C2)c2ccncc21)C(C)C [Example 7, 5-Fluoro-2-(3-(1-((1S,3S,4S,5S)-5-fluoro-2-azabicyclo[2.2.1]heptane-3-carbonyl)azetidine-3-carbonyl)-1H-pyrrolo[2,3-c]pyridin-1-yl)-N,N-diisopropylbenzamide] | > 10 µM | > 40 µM |  | 
4 | 0.029 µM | 1.9 μl/min/1E6 | Cc1c(C(=O)C2CCN(C(=O)[C@H]3NC[C@@H]4C[C@@H]43)CC2)c2ccncc2n1-c1ccc(F)cc1C(=O)N(CC(F)(F)F)C(C)C (single isomer, unassigned) [Example 51-2] |  | > 40 µM | > 10 µM | 
5 |  | 4.4 μl/min/1E6 | Cc1c(C(=O)C2CCN(C(=O)[C@H]3NC[C@@H]4C[C@@H]43)CC2)c2ccncc2n1-c1ccc(F)cc1C(=O)N(C(C)C)C(C)C (single isomer, unassigned) [Example 55-1] | > 10 µM | > 40 µM |  | 1.73 µM
6 | 0.025 µM | 3.6 μl/min/1E6 | CC(C)N(C(=O)c1cc(F)ccc1-n1cc(C(=O)C2CCN(C(=O)[C@H]3NC[C@@H]4C[C@@H]43)CC2)c2ccncc21)C(C)C [Example 19, 2-(3-(1-((1S,2S,5R)-3-Azabicyclo[3.1.0]hexane-2-carbonyl)piperidine-4-carbonyl)-1H-pyrrolo[2,3-c]pyridin-1-yl)-5-fluoro-N,N-diisopropylbenzamide] | > 10 µM | > 40 µM |  | 
7 | 0.034 µM | <1.0 μl/min/1E6 | CCN(C(=O)c1cc(F)ccc1-n1cc(C(=O)C2CCN(C(=O)[C@H]3NC[C@@H]4C[C@@H]43)CC2)c2ccncc21)C(C)C [Example 28, 2-(3-(1-((1S,2S,5R)-3-Azabicyclo[3.1.0]hexane-2-carbonyl)piperidine-4-carbonyl)-1H-pyrrolo[2,3-c]pyridin-1-yl)-N-ethyl-5-fluoro-N-isopropylbenzamide] | > 10 µM | > 40 µM |  | 
8 | 0.099 µM | <1.0 μl/min/1E6 | CC(C)N(C(=O)c1cc(F)ccc1-n1cc(C(=O)[C@@H]2CCN(C(=O)[C@H]3N[C@@H]4CC[C@H]3C4)C2)c2ccncc21)C(C)C [Example 3, 2-(3-((R)-1-((1R,3S,4S)-2-Azabicyclo[2.2.1]heptane-3-carbonyl)pyrrolidine-3-carbonyl)-1H-pyrrolo[2,3-c]pyridin-1-yl)-5-fluoro-N,N-diisopropylbenzamide] | > 10 µM | 38.8 µM |  | 
9 | 0.32 µM | 1.2 μl/min/1E6 | CC(C)N(C(=O)c1cc(F)ccc1-n1cc(C(=O)C2CCN(C[C@H]3CC[C@H](NS(C)(=O)=O)CC3)CC2)c2ccncc21)C(C)C [Example 17, 5-Fluoro-N,N-diisopropyl-2-(3-(1-(((1r,4r)-4-(methylsulfonamido)cyclohexyl)-methyl)piperidine-4-carbonyl)-1H-pyrrolo[2,3-c]pyridin-1-yl)benzamide] | > 10 µM | 9.1 µM |  | 
10 | 0.132 µM | 2.3 μl/min/1E6 | CC(C)N(C(=O)c1cc(F)ccc1-n1cc(C(=O)[C@@H]2CCN(C[C@H]3CC[C@H](NS(C)(=O)=O)CC3)C2)c2ccncc21)C(C)C [Example 4, 5-Fluoro-N,N-diisopropyl-2-(3-((R)-1-(((1r,4R)-4-(methylsulfonamido)-cyclohexyl)methyl)pyrrolidine-3-carbonyl)-1H-pyrrolo[2,3-c]pyridin-1-yl)benzamide] | > 10 µM | 6.3 µM |  | 

The remaining lines, values behind:

Row | Compound | IC50 (MV4;11 cells; Homo sapiens, MV4-11, 168 h) | HH CLint [1] | IC50 (HEL cells; Homo sapiens, HEL, 168 h) | IC50 (hERG) | IC50 (HEL cells) | IC50 (MV4;11 cells)
11 | CC(C)c1ncccc1-c1cc(F)ccc1-n1cc(C(=O)C2CCN(C(=O)[C@H]3N[C@@H]4CC[C@H]3C4)CC2)c2ccncc21 [Example 38, (1-((1R,3S,4S)-2-Azabicyclo[2.2.1]heptane-3-carbonyl)piperidin-4-yl)(1-(4-fluoro-2-(2-isopropylpyridin-3-yl)phenyl)-1H-pyrrolo[2,3-c]pyridin-3-yl)methanone] | 0.024 µM | <1.0 μl/min/1E6 | > 10 µM | > 40 µM |  | 
12 | COCCN(C)CCC[C@H](C(C)C)N1CCC(C(=O)c2cn(-c3ccc(F)cc3C(=O)N(C(C)C)C(C)C)c3cnccc23)CC1 (racemic) [Example 23, rac-(R)-5-Fluoro-N,N-diisopropyl-2-(3-(1-(6-((2-methoxyethyl)(methyl)amino)-2-methylhexan-3-yl)piperidine-4-carbonyl)-1H-pyrrolo[2,3-c]pyridin-1-yl)benzamide] | 0.02 µM | 3.8 μl/min/1E6 | > 10 µM | 30.6 µM |  | 
13 | CC(C)N(C(=O)c1cc(F)ccc1-n1cc(C(=O)C2CCN(C(=O)[C@@H]3CCC4(CC4)N3)CC2)c2ccncc21)C(C)C [Example 24, (S)-2-(3-(1-(4-Azaspiro[2.4]heptane-5-carbonyl)piperidine-4-carbonyl)-1H-pyrrolo[2,3-c]pyridin-1-yl)-5-fluoro-N,N-diisopropylbenzamide] | 0.02 µM | 4.1 μl/min/1E6 | > 10 µM | 38.3 µM |  | 
14 | O=C(c1cn(-c2ccc(F)cc2-c2cncnc2C2CC2)c2cnccc12)C1CCN(C(=O)[C@H]2N[C@@H]3CC[C@H]2C3)CC1 [Example 40, (1-((1R,3S,4S)-2-Azabicyclo[2.2.1]heptane-3-carbonyl)piperidin-4-yl)(1-(2-(4-cyclopropylpyrimidin-5-yl)-4-fluorophenyl)-1H-pyrrolo[2,3-c]pyridin-3-yl)methanone] | 0.037 µM | <1.0 μl/min/1E6 | > 10 µM | > 40 µM |  | 
15 | Cc1c(C(=O)C2CCN(C(=O)[C@@H]3CCC4(CC4)N3)CC2)c2ccncc2n1-c1ccc(F)cc1C(=O)N1[C@H](C)COC[C@H]1C (single isomer, unassigned) [Example 58-2] | 0.035 µM | 1.9 μl/min/1E6 |  | > 40 µM | > 10 µM | 
16 | CC(C)N(C(=O)c1cc(F)ccc1-n1cc(C(=O)C2CCN(C(=O)[C@@H]3CC4(CC4)CN3)CC2)c2ccncc21)C(C)C [Example 26, (S)-2-(3-(1-(5-Azaspiro[2.4]heptane-6-carbonyl)piperidine-4-carbonyl)-1H-pyrrolo[2,3-c]pyridin-1-yl)-5-fluoro-N,N-diisopropylbenzamide] | 0.05 µM | <1.0 μl/min/1E6 | > 10 µM | > 40 µM |  | 
17 | CCN(C(=O)c1cc(F)ccc1-n1c(C)c(C(=O)[C@@H]2CCN(C(=O)[C@@H]3CCC4(CC4)N3)[C@@H](C)C2)c2ccncc21)C(C)C (single isomer, unassigned) [Example 52-2, N-Ethyl-5-fluoro-N-isopropyl-2-(2-methyl-3-((2R*,4S*)-2-methyl-1-((S)-4-azaspiro[2.4]heptane-5-carbonyl)piperidine-4-carbonyl)-1H-pyrrolo[2,3-c]pyridin-1-yl)benzamide] |  | 3.5 μl/min/1E6 | > 10 µM | 14.2 µM |  | 0.056 µM
18 | CCN(C(=O)c1cc(F)ccc1-n1c(C)c(C(=O)C2CCN(C(=O)[C@@H]3CCC4(CC4)N3)CC2)c2ccncc21)C(C)C (single isomer, unassigned) [Example 49-2] |  | 6.0 μl/min/1E6 |  | > 38 µM | > 10 µM | 0.034 µM
19 | Cc1c(C(=O)C2CCN(C(=O)[C@@H]3CCC(C)(C)N3)CC2)c2ccncc2n1-c1ccc(F)cc1C(=O)N(C(C)C)C(C)C (single isomer, unassigned) [Compound 56-2] | 0.035 µM | 3.4 μl/min/1E6 |  | > 40 µM | > 10 µM | 
20 | CC(C)c1ncsc1-c1cc(F)ccc1-n1cc(C(=O)C2CCN(C(=O)[C@H]3N[C@@H]4CC[C@H]3C4)CC2)c2ccncc21.O=CO [Example 42, (1-((1R,3S,4S)-2-Azabicyclo[2.2.1]heptane-3-carbonyl)piperidin-4-yl)(1-(4-fluoro-2-(4-isopropylthiazol-5-yl)phenyl)-1H-pyrrolo[2,3-c]pyridin-3-yl)methanone 1·formic acid] | 0.043 µM | 2.5 μl/min/1E6 | > 10 µM | > 40 µM |  | 
